From ChEMBL document CHEMBL3867466, “Synthesis and biological evaluation of novel 2,4,5-triarylimidazole-1,2,3-triazole derivatives via click chemistry as α-glucosidase inhibitors” (Bioorg Med Chem Lett, 2016)
pIC50, pKi: −log10 of the molar value.

These compounds were tested against T1, Alpha-glucosidase MAL12 (Saccharomyces cerevisiae S288c, UniProt P53341) (assay: Inhibition of bakers yeast alpha-glucosidase using p-nitrophenyl-alpha-D-glucopyranoside as substrate incubated for 15 mins followed by substrate addition measured after 30 mins by spectrophotometric analysis).
T1 sequence (P53341 whole entry): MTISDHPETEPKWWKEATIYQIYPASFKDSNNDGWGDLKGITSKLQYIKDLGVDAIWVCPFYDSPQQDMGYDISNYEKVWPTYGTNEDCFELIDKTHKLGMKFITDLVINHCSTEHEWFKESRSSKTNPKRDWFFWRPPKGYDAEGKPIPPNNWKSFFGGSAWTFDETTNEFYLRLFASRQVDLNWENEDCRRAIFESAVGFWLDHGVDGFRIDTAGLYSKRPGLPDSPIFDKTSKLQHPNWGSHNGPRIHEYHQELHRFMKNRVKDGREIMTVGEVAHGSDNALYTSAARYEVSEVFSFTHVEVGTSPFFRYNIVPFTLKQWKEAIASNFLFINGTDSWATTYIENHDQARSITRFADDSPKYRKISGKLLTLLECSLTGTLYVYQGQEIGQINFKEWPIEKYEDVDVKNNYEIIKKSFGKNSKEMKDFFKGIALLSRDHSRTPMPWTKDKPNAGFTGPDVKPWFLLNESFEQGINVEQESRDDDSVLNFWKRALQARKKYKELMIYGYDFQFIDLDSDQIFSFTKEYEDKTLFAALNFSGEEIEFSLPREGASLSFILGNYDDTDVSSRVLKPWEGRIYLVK

Row | SMILES | pIC50
1 | CCOc1ccccc1NC(=O)Cn1cc(Cn2c(-c3cccc(Br)c3)nc(-c3ccccc3)c2-c2ccccc2)nn1 | 4.82
2 | Cc1ccc(NC(=O)Cn2cc(Cn3c(-c4cccc(F)c4)nc(-c4ccccc4)c3-c3ccccc3)nn2)c(C)c1 | 4.52
3 | O=C(Cn1cc(Cn2c(-c3ccc(F)cc3)nc(-c3ccccc3)c2-c2ccccc2)nn1)Nc1ccc(Cl)cc1Cl | 4.64
4 | COc1ccc(NC(=O)Cn2cc(Cn3c(-c4cccc(Cl)c4)nc(-c4ccccc4)c3-c3ccccc3)nn2)cc1 | 4.32
5 | CCOc1ccc(NC(=O)Cn2cc(Cn3c(-c4ccc(C(=O)OC)cc4)nc(-c4ccccc4)c3-c3ccccc3)nn2)cc1 | 4.77
6 | CCOc1ccc(NC(=O)Cn2cc(Cn3c(-c4cccc(Cl)c4)nc(-c4ccccc4)c3-c3ccccc3)nn2)cc1 | 4.35
7 | COc1ccccc1-c1nc(-c2ccccc2)c(-c2ccccc2)n1Cc1cn(CC(=O)Nc2ccc(C)cc2)nn1 | 4.57
8 | CCOc1ccccc1NC(=O)Cn1cc(Cn2c(-c3ccccc3F)nc(-c3ccccc3)c2-c2ccccc2)nn1 | 4.43
9 | COc1ccc(NC(=O)Cn2cc(Cn3c(-c4cccs4)nc(-c4ccccc4)c3-c3ccccc3)nn2)cc1 | 4.62
10 | O=C(Cn1cc(Cn2c(-c3ccc(Br)cc3)nc(-c3ccccc3)c2-c2ccccc2)nn1)Nc1ccc(F)cc1 | 4.66
11 | COc1cc(-c2nc(-c3ccccc3)c(-c3ccccc3)n2Cc2cn(CC(=O)Nc3cccc(C)c3)nn2)cc(OC)c1OC | 4.69
12 | Cc1ccccc1NC(=O)Cn1cc(Cn2c(-c3cccc(F)c3)nc(-c3ccccc3)c2-c2ccccc2)nn1 | 4.49
13 | CCOc1ccc(NC(=O)Cn2cc(Cn3c(-c4cccc(Br)c4)nc(-c4ccccc4)c3-c3ccccc3)nn2)cc1 | 4.71
14 | Cc1ccccc1NC(=O)Cn1cc(Cn2c(-c3ccc(Br)cc3)nc(-c3ccccc3)c2-c2ccccc2)nn1 | 4.53
15 | COc1cc(-c2nc(-c3ccccc3)c(-c3ccccc3)n2Cc2cn(CC(=O)Nc3ccc(Cl)cc3)nn2)cc(OC)c1OC | 4.53
16 | COc1ccc(-c2nc(-c3ccccc3)c(-c3ccccc3)n2Cc2cn(CC(=O)Nc3ccc(Cl)cc3Cl)nn2)cc1OC | 4.66
17 | COC(=O)c1ccc(-c2nc(-c3ccccc3)c(-c3ccccc3)n2Cc2cn(CC(=O)Nc3cc(Cl)ccc3Cl)nn2)cc1 | 4.69
18 | Cc1ccc(NC(=O)Cn2cc(Cn3c(-c4cccc(Cl)c4)nc(-c4ccccc4)c3-c3ccccc3)nn2)c(C)c1 | 4.41

What follows are compounds tested against T1, Alpha-glucosidase MAL12 (assay: Non-competitive inhibition of bakers yeast alpha-glucosidase using p-nitrophenyl-alpha-D-glucopyranoside as substrate by Lineweaver-Burk plot analysis).

Row | SMILES | pKi
19 | CCOc1ccccc1NC(=O)Cn1cc(Cn2c(-c3cccc(Br)c3)nc(-c3ccccc3)c2-c2ccccc2)nn1 | 4.83
